Laboratory results reported in patent US11752125B2, “Anti-neuroinflammatory and protective compounds in Achillea fragrantissima” (THE STATE OF ISRAEL MINISTRY OF AGRICULTURE & RURAL …, priority 2013, dated 2023).

Columns and labels:
SAPK/JNK = assay: Aβ25-35-induced SAPK/JNK phosphorylation in N2a cells (ELISA); format: cell-based; settings: concomitant treatment 30-40 min
Experimental: 7. Measure the amount of total and phosphorylated SAPK/JNK in cell lysates) of N2a cells, by ELISA using the PathScan total SAPK/JNK sandwich ELISA kit (Cell Signaling TECHNOLOGY) and the PathScan phosoho-SAPK/JNK (Thr183/Tyr185) sandwich ELISA kit (Cell Signaling TECHNOLOGY), respectively, according to the manufacturer's instructions. 8. Determine the optical density at 450 nm using a microplate reader.
N2a cells were treated concomitantly with Aβ25-35 and TIF for 40 min. Cells were extracted and the levels of phosphorylated or total SAPK/JNK were determined by specific ELISA kits. The results are the mean±SEM of two different experiments (n=4) for phosphorylated SAPK/JNK and three different experiments (n=6) for total SAPK/JNK.
N2a cells were treated concomitantly with Aβ25-35 and achillolide A for 40 min. Cells were extracted and the levels of phosphorylated or total SAPK/JNK were determined by specific ELISA kits. The results are the mean±SEM of two different experiments (n=4) for phosphorylated SAPK/JNK and three different experiments (n=6) for total SAPK/JNK.
N2a cells were treated concomitantly with Aβ25-35 and memantine for 30 min. Cells were extracted and the levels of phosphorylated SAPK/JNK were determined by a specific ELISA kit. The results are the mean±SEM of one experiment (n=2).

ERK1/2 = assay: Aβ25-35-induced ERK1/2 phosphorylation in N2a cells (ELISA); format: cell-based; settings: concomitant treatment 30-40 min
Experimental: 7. Measure the amount of total and phosphorylated ERK 1/2 in cell lysates of N2a cells, by ELISA using the PathScan total p44/42 MAPK (ERK 1/2) sandwich ELISA kit (Cell Signaling TECHNOLOGY) or the PathScan phosoho-p44/42 MAPK (Thr202/Tyr204) sandwich ELISA kit (Cell Signaling TECHNOLOGY), respectively. 8. Determine the optical density at 450 nm using a microplate reader.
N2a cells were treated concomitantly with Aβ25-35 and TTF for 30 min. Cells were extracted and the levels of phosphorylated or total ERK1/2 were determined by specific ELISA kits. The results are shown in FIG. 14 and are the mean±SEM of two different experiments (n=4).
N2a cells were treated concomitantly with Aβ25-35 and achillolide A for 40 min. Cells were extracted and the levels of phosphorylated or total ERK 1/2 were determined by specific ELISA kits. The results are the mean±SEM of two different experiments (n=4).
N2a cells were treated concomitantly with Aβ25-35 and memantine for 30 min. Cells were extracted and the levels of phosphorylated ERK1/2 were determined by a specific ELISA kit. The results are the mean±SEM of one experiment (n=2).

[1] = Hydrogen peroxide scavenging activity (A230); settings: for H2O2 scavenged: 8 μM compound; for H2O2 scavenged / H2O2 scavenging ability at higher concentrations: 1 mM H2O2, 10 min; for H2O2 scavenging ability at higher concentrations: up to 32 μM compound; for H2O2 scavenging ability: 1 mM H2O2 in PBS, 10 min
Experimental: The scavenging of H2O2 was determined by the method of Ruch et al. Carcinogenesis. 1989 June; 10(6):1003-8, using 1 mM instead of 4 mM H2O2. A 1 mM solution of H2O2 was prepared in PBS and was incubated with different concentrations of TTF, quercetin or memantine. Absorbance (A230) was determined spectrophotometrically 10 min later against blank solutions containing TTF, quercetin or memantine in PBS without H2O2.
For assessment of H2O2 scavenging activity, 1 mM H2O2 and different concentrations of TTF, quercetin or memantine were co-incubated in PBS. Optical density was measured 10 min later. The results are shown in FIG. 6 and are means±SEM of two experiments performed in duplicates (n=4). **P<0.01, ***P<0.001, compared to H2O2 in the absence of TTF.
For […] of H2O2 scavenging activity, 1 mM H2O2 and different concentrations of achillolide A, quercetin or memantine were co-incubated in PBS. Optical density was measured 10 min later. The results are means±SEM of two experiments performed in duplicates (n=4). **P<0.01, ***P<0.001, compared to H2O2 in the absence of compound Results are shown in FIG. 38.

Row | SMILES | effect on Aβ25-35-induced phosphorylation of SAPK/JNK (SAPK/JNK) | effect on Aβ25-35-induced phosphorylation of ERK1/2 (ERK1/2) | H2O2 scavenged [1] [%] | H2O2 scavenging ability at higher concentrations [1] [%] | H2O2 scavenging ability [1]
1 | COc1cc(-c2oc3cc(OC)c(OC)c(O)c3c(=O)c2O)ccc1O [TTF, 3,5,4′-trihydroxy-6,7,3′-trimethoxyflavone] | significantly inhibited | significantly inhibited | 7 | ≤ 7 | –
2 | C=C1CCC2=C(CO)C(=O)O[C@H]2/C=C(\C)[C@H](OC(C)=O)CC1=O [achillolide A] | significantly decreased | significantly decreased | – | – | hydrogen peroxide scavenging ability
3 | CC12CC3CC(C)(C1)CC(N)(C3)C2 [memantine, reference compound] | down-regulates | does not affect | – | – | did not have any scavenging ability
4 | O=c1c(O)c(-c2ccc(O)c(O)c2)oc2cc(O)cc(O)c12 [quercetin, 3,3′,4′,5,7-Pentahydroxyflavone, reference compound] | – | – | 57 | 88 | –
